“Also recorded” adds a separate entry of the source. Where two headings read alike, the source gives them in different places.
Columns and labels:
[1] = system: Bacillus subtilis; experiment: Well diffusion zone of inhibition, antibacterial; assay type: cell-based; details: for zone of inhibition at 250 µg/disc: Bacillus subtilis, 48 h, read-out: Diameter of inhibition zone, Bacillus subtilis; for Antibacterial activity against B. subtilis (in words): zone of inhibition compared to Ampicillin
[2] = system: Escherichia coli; experiment: Well diffusion zone of inhibition, antibacterial; assay type: cell-based; details: for zone of inhibition at 250 µg/disc: Escherichia coli, 48 h, read-out: Diameter of inhibition zone, Escherichia coli
[3] = system: SARS-CoV; experiment: microbe, parasite or virus in culture; assay type: cell-based, severe acute respiratory syndrome coronavirus (SARS-CoV); details: for EC50: read-out: SARS-CoV EC50
[4] = system: influenza A virus H5N1; assay type: cell-based; details: for EC50: read-out: Influenza Type-A H5N1 EC50
[5] = system: Asperigillus niger; experiment: Well diffusion zone of inhibition, antifungal; assay type: cell-based; details: Aspergillus niger, read-out: Diameter of inhibition zone, Asperigillus niger
[6] = system: HCV; assay type: cell-based; details: read-out: HCV EC50
[7] = system: HBV; assay type: cell-based; details: read-out: HBV EC50; DNA virion assay
[8] = system: HSV-1; experiment: In vitro antiviral screening, cytopathic effect and neutral red assays; assay type: cell-based; details: read-out: HSV-1 EC50
[9] = system: HSV-2; experiment: as above; assay type: cell-based; details: read-out: HSV-2 EC50
[10] = system: WNV; experiment: In vitro antiviral screening, visual and neutral red tests; assay type: cell-based, West Nile virus (WNV); details: read-out: WNV EC50
[11] = system: influenza B virus; experiment: Anti influenza screening, cytopathic effect and cytotoxicity assays; assay type: cell-based; details: read-out: Influenza Type-B EC50
[12] = system: influenza A virus H3N2; experiment: as above; assay type: cell-based; details: read-out: Influenza Type-A H3N2 EC50
[13] = system: influenza A virus H1N1; experiment: as above; assay type: cell-based; details: read-out: Influenza Type-A H1N1 EC50

With `CC(=O)OC[C@H]1O[C@@H](n2c(-c3cccs3)cc(-c3ccc(C(C)C)cc3)c(C#N)c2=O)[C@H](OC(C)=O)[C@@H](OC(C)=O)[C@H]1OC(C)=O` [Compound 3bAc] as the compound, how does the zone of inhibition at 250 µg/disc [1] read?
Its zone of inhibition at 250 µg/disc is 1 mm.

What about the “Antibacterial activity against B. subtilis (in words)” value [1] of the same compound?
Its value is “lower antibacterial activity”.

And the zone of inhibition at 250 µg/disc [2]?
The zone of inhibition at 250 µg/disc was 0 mm.

`CC(C)c1ccc(-c2cc(-c3cccs3)n(COCCO)c(=O)c2C#N)cc1` [Compound 7b, 1-[(2-Hydroxyethoxy)methyl]-4-(4-isopropylphenyl)-2-oxo-6-(2-thienyl)nicotinonitrile] was tested. Which “Antibacterial activity against B. subtilis (in words)” value [1] did it give?
Its value is “good activity”.

And the “Antibacterial activity against E. coli (in words)” value ([2]; zone of inhibition)?
The value was “no activity”.

For `CC(=O)OC[C@H]1O[C@@H](n2c(-c3ccccn3)cc(-c3ccc(Cl)cc3)c(C#N)c2=O)[C@H](OC(C)=O)[C@@H](OC(C)=O)[C@@H]1OC(C)=O` [Compound 2aAc], which “Anti SARS-CoV activity (in words)” value [3] is on record?
The value was “slightly active by visual, but not neutral red test; also recorded: active”.

What about the “Anti influenza A (H5N1) activity (in words)” value [4] of the same compound?
Its value is “good and slightly active and active”.

With `CC(C)c1ccc(-c2cc(-c3cccs3)n([C@@H]3O[C@H](CO)[C@@H](O)[C@H](O)[C@H]3O)c(=O)c2C#N)cc1` [Compound 2b, 1-(β-D-Glucopyranosyl)-4-(4-isopropylphenyl)-2-oxo-6-(2-thienyl)nicotinonitrile] as the compound, how does the “Antibacterial activity against B. subtilis (in words)” value [1] read?
Its value is “moderate antibacterial activity”.

For `N#Cc1c(-c2ccc(Cl)cc2)cc(-c2ccccn2)nc1OCCCCO` [Compound 5, 4-(4-Chlorolphenyl)-2-(4-hydroxybutyloxy)-6-(2-pyridyl)nicotinonitrile], which “Antibacterial activity against B. subtilis (in words)” value [1] is on record?
The value was “lower antibacterial activity”.

`CC(=O)OCCCCOc1nc(-c2ccccn2)cc(-c2ccc(Cl)cc2)c1C#N` [Compound 5Ac] was tested. Which “Antibacterial activity against B. subtilis (in words)” value [1] did it give?
The value was “lower antibacterial activity”.

For `CC(=O)OC[C@H]1O[C@@H](n2c(-c3ccccn3)cc(-c3ccc(Cl)cc3)c(C#N)c2=O)[C@H](OC(C)=O)[C@@H](OC(C)=O)[C@H]1OC(C)=O` [Compound 3aAc], which zone of inhibition at 250 µg/disc [1] is on record?
The zone of inhibition at 250 µg/disc was 1 mm.

And the “Antibacterial activity against B. subtilis (in words)” value [1]?
Its value is “lower antibacterial activity”.

With `N#Cc1c(-c2cccs2)cc(-c2cccs2)n([C@@H]2O[C@H](CO)[C@H](O)[C@H](O)[C@H]2O)c1=O` [Compound 3c, 1-(β-D-Galactopyranosyl)-2-oxo-4,6-di(2-thienyl)-nicotinonitrile] as the compound, how does the “Antibacterial activity against B. subtilis (in words)” value [1] read?
The value was “lower antibacterial activity”.

How did the “Antibacterial activity against B. subtilis (in words)” value [1] turn out when `N#Cc1c(-c2ccc(Cl)cc2)cc(-c2ccccn2)n([C@@H]2O[C@H](CO)[C@H](O)[C@H](O)[C@H]2O)c1=O` [Compound 3a, 4-(4-Chlorophenyl)-1-(β-D-galactopyranosyl)-2-oxo-6-(2-pyridyl)nicotinonitrile] was run?
Its value is “lower antibacterial activity”.

`CC(=O)OC[C@H]1O[C@@H](n2c(-c3cccs3)cc(-c3ccc(C(C)C)cc3)c(C#N)c2=O)[C@H](OC(C)=O)[C@@H](OC(C)=O)[C@@H]1OC(C)=O` [Compound 2bAc] was tested. Which “Antibacterial activity against B. subtilis (in words)” value [1] did it give?
Its value is “lower antibacterial activity”.

With `N#Cc1c(-c2cccs2)cc(-c2cccs2)n([C@@H]2O[C@H](CO)[C@@H](O)[C@H](O)[C@H]2O)c1=O` [Compound 2c, 1-(β-D-Glucopyranosyl)-2-oxo-4,6-di(2-thienyl)nicotinonitrile] as the compound, how does the “Antibacterial activity against B. subtilis (in words)” value [1] read?
The value was “lower antibacterial activity”.

What about the zone of inhibition at 250 µg/disc [2] of the same compound?
The zone of inhibition at 250 µg/disc was 0 mm.

And the zone of inhibition at 250 µg/disc [5]?
The zone of inhibition at 250 µg/disc was 8 mm.

With “4-(4-Isopropylphenyl)-2-oxo-6-(2-thienyl)nicotinonitrile [Compound 1b]” as the compound, how does the EC50 [6] read?
Its EC50 is > 100 µM.

What about the EC50 [7] of the same compound?
The EC50 was > 100 µM.

And the EC50 [8]?
The EC50 was > 300 µM.

And the EC50 [9]?
Its EC50 is > 300 µM.

And the EC50 [3]?
The EC50 was > 26 µM.

What about the EC50 [10] of the same compound?
The EC50 was > 2.2 µM.

And the EC50 [11]?
Its EC50 is 46 µM.

And the EC50 [12]?
The EC50 was 22 µM.

And the EC50 [4]?
The EC50 was 32 µM.

Which results are given for “4-(4-Chlorophenyl)-2-oxo-6-(2-pyridyl)nicotinonitrile [Compound 1a]”?
EC50 [6]: > 100 µM; EC50 [7]: > 100 µM; EC50 [8]: > 300 µM; EC50 [9]: > 300 µM; EC50 [3]: > 0.32 µM; EC50 [10]: > 2.2 µM; EC50 [11]: > 36 µM; EC50 [12]: > 2.6 µM; EC50 [4]: > 100 µM; EC50 [13]: 26 µM

For “2-Oxo-4,6-di(2-thienyl)nicotinonitrile [Compound 1c]”, which EC50 [6] is on record?
Its EC50 is > 100 µM.

What about the EC50 [7] of the same compound?
The EC50 was > 100 µM.

What about the EC50 [8] of the same compound?
The EC50 was > 12 µM.

And the EC50 [9]?
Its EC50 is > 12 µM.

What about the EC50 [3] of the same compound?
The EC50 was > 100 µM.

What about the EC50 [10] of the same compound?
The EC50 was > 4.6 µM.

And the EC50 [11]?
The EC50 was > 100 µM.

And the EC50 [12]?
Its EC50 is 16 µM.

And the EC50 [4]?
The EC50 was > 100 µM.

And the EC50 [13]?
Its EC50 is 32 µM.

Which “Antibacterial activity against B. subtilis (in words)” value [1] does the source give for `C=CCOc1nc(-c2ccccn2)cc(-c2ccc(Cl)cc2)c1C#N` [Compound 9, 2-(Allyloxy)-4-(4-chlorolphenyl)-6-(2-pyridyl)nicotinonitrile] here?
Its value is “lower antibacterial activity”.

For `CC(=O)OCCOCn1c(-c2cccs2)cc(-c2cccs2)c(C#N)c1=O` [Compound 7cAc, 1-[(2-Acetoxyethoxy)methyl]-2-oxo-4,6-di(2-thienyl)nicotinonitrile], which “Antibacterial activity against B. subtilis (in words)” value [1] is on record?
Its value is “moderate antibacterial activity”.

How did the “Antibacterial activity against B. subtilis (in words)” value [1] turn out when `N#Cc1c(-c2ccc(Cl)cc2)cc(-c2ccccn2)n(CCCO)c1=O` [Compound 8a, 4-(4-Chlorolphenyl)-1-(3-hydroxypropyl)-2-oxo-6-(2-pyridyl)nicotinonitrile] was run?
The value was “lower antibacterial activity”.

What does the source list for `CC(=O)OC[C@H]1O[C@@H](n2c(-c3cccs3)cc(-c3cccs3)c(C#N)c2=O)[C@H](OC(C)=O)[C@@H](OC(C)=O)[C@@H]1OC(C)=O` [Compound 2cAc]?
Antibacterial activity against B. subtilis (in words) [1]: lower antibacterial activity; EC50 ([3]; Severe acute respiratory syndrome coronavirus): > 32 µM

For `CC(C)c1ccc(-c2cc(-c3cccs3)n([C@@H]3O[C@H](CO)[C@H](O)[C@H](O)[C@H]3O)c(=O)c2C#N)cc1` [Compound 3b, 1-(β-D-Galactopyranosyl)-4-(4-isopropylphenyl)-2-oxo-6-(2-thienyl)nicotinonitrile], which “Antibacterial activity against B. subtilis (in words)” value [1] is on record?
The value was “lower antibacterial activity”.

What about the zone of inhibition at 250 µg/disc [5] of the same compound?
Its zone of inhibition at 250 µg/disc is 8 mm.

Reference: paper PMC7115408 (European Journal of Medicinal Chemistry, 2014)
